Legend:
A549 = assay: Cell-based assay, anti-proliferative activity (Cell Counting Kit-8, 72 hours); details: Homo sapiens; A549 cells, 72 hours, Cell Counting Kit-8; read-out: IC50 (μM) A549
Summary of the method: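 Seed cells in 96-well format; add inhibitors; measure growth by CCK-8 at end of exposure; derive IC50.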

CCD-18Co = assay: as above; details: Homo sapiens; CCD-18Co cells, 72 hours, Cell Counting Kit-8; read-out: IC50 (μM) CCD-18Co
Summary of the method: (§1)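 Seed cells in 96-well plates; add serially diluted inhibitor (1.5625 to 100 micro-M plus vehicle); incubate 72 hours; quantify viable growth by CCK-8 and calculate IC50.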

HCT-116 = assay: as above; details: Homo sapiens; HCT-116 cells, 72 hours, Cell Counting Kit-8; read-out: IC50 (μM) HCT-116
Summary of the method: as §1

HFL1 = assay: as above; details: Homo sapiens; HFL1 cells, 72 hours, Cell Counting Kit-8; read-out: IC50 (μM) HFL1
Summary of the method: as §1

PC14 = assay: as above; details: Homo sapiens, PC-14; PC14 cells, 72 hours, Cell Counting Kit-8; read-out: IC50 (μM) PC14
Summary of the method: as §1

SUV39H2 = SUV39H2 (Homo sapiens (Human), UniProt Q9H5I1); details: read-out: IC50 (μM) Suv 39H2 assay; enzyme assay
Sequence of SUV39H2 (Q9H5I1 whole entry): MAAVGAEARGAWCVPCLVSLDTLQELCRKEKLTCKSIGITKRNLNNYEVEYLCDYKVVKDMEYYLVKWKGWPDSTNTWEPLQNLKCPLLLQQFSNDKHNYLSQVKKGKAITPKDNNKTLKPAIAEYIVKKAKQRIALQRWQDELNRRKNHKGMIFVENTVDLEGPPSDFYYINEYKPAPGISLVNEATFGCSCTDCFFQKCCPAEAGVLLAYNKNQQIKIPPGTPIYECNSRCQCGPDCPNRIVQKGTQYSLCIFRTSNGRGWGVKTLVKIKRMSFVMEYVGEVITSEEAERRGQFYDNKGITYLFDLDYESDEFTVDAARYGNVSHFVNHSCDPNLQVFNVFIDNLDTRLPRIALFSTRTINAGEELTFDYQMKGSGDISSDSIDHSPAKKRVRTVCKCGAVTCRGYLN

| Structure (SMILES) | IC50 (A549) | IC50 (CCD-18Co) | IC50 (HCT-116) | IC50 (HFL1) | IC50 (PC14) | IC50 (SUV39H2) |
| --- | --- | --- | --- | --- | --- | --- |
| COc1cc(OC)c(-c2cn3ccc(N4CCN(c5ccccc5)CC4)cc3n2)cc1Cl [Example 282, 2-(5-chloro-2,4-dimethoxyphenyl)-7-(4-phenylpiperazin-1-yl)-imidazo[1,2-a]pyridine] | 1.5 µM | 1.5 µM | 1.4 µM | 1.4 µM | 0.96 µM | 0.0349 µM |
| COc1cc(OC)c(-c2cn3ccc(N4CCN(c5ncccc5C#N)CC4)cc3n2)cc1Cl [Example 283, 2-(4-(2-(5-chloro-2,4-dimethoxyphenyl)imidazo[1,2-a]pyridin-7-yl)-piperazin-1-yl)nicotinonitrile] | 0.66 µM | 0.45 µM | 0.42 µM | 0.69 µM | 0.68 µM | 0.0141 µM |
| COc1cc(OC)c(-c2cn3ccc(OC4CCN(c5ccnc(N)n5)CC4)cc3n2)cc1Cl [Example 284, 4-(4-((2-(5-chloro-2,4-dimethoxyphenyl)imidazo[1,2-a]pyridin-7-yl)oxy)-piperidin-1-yl)pyrimidin-2-amine] | 1.5 µM | 1.3 µM | 0.71 µM | 1.1 µM | 0.98 µM | 0.0918 µM |
| COc1cc(OC)c(-c2cn3ccc(N4CCN(c5cnccn5)CC4)cc3n2)cc1Cl [Example 285, 2-(5-chloro-2,4-dimethoxyphenyl)-7-(4-(pyrazin-2-yl)piperazin-1-yl)imidazo[1,2-a]pyridine] | 0.72 µM | 0.7 µM | 0.67 µM | 0.69 µM | 0.7 µM | 0.00747 µM |
| COc1cc(OC)c(-c2cn3ccc(N4CCN(c5nccc(N)n5)CC4)cc3n2)cc1Cl [Example 286, 2-(4-(2-(5-chloro-2,4-dimethoxyphenyl)imidazo[1,2-a]pyridin-7-yl)piperazin-1-yl)-pyrimidin-4-amine] | 0.65 µM | 0.71 µM | 0.56 µM | 0.7 µM | 0.63 µM | 0.00881 µM |
| COc1cc(OC)c(-c2cn3ccc(N[C@H]4CC[C@H](Nc5ccccn5)CC4)cc3n2)cc1Cl [Example 287, N^1-(2-(5-chloro-2,4-dimethoxyphenyl)imidazo[1,2-a]pyridin-7-yl)-N^4-(pyridin-2-yl)-trans-cyclohexane-1,4-diamine] | 0.8 µM | 0.81 µM | 0.91 µM | 0.78 µM | 0.94 µM | 0.0327 µM |
| COc1cc(OC)c(-c2cn3ccc(OC4CCN(S(=O)(=O)c5nccn5C)CC4)cc3n2)cc1Cl [Example 288, 2-(5-chloro-2,4-dimethoxyphenyl)-7-((1-((1-methyl-1H-imidazol-2-yl)sulfonyl)piperidin-4-yl)oxy)imidazo[1,2-a]pyridine] | 0.8 µM | 1.5 µM | 0.98 µM | 1.7 µM | 1.2 µM | 0.0928 µM |
| COc1cc(OC)c(-c2cn3ccc(N[C@H]4CC[C@H](CN5CCN(S(C)(=O)=O)CC5)CC4)cc3n2)cc1Cl [Example 289, 2-(5-chloro-2,4-dimethoxyphenyl)-trans-N-(4-((4-(methylsulfonyl)piperazin-1-yl)methyl)cyclohexyl)imidazo-[1,2-a]pyridin-7-amine] | 0.63 µM | 0.72 µM | 0.83 µM | 0.74 µM | 0.77 µM | 0.028 µM |
| COc1cc(OC)c(-c2nc3cc(N4CCN(C(=O)OC(C)(C)C)CC4)ccn3c2I)cc1Cl [Example 290, tert-butyl 4-(2-(5-chloro-2,4-dimethoxyphenyl)-3-iodoimidazo[1,2-a]-pyridin-7-yl)piperazine-1-carboxylate] | 1.3 µM | 1.4 µM | 1.3 µM | 1.3 µM | 0.61 µM | 0.00975 µM |
| COc1cc(OC)c(-c2cn3ccc(N[C@H]4CC[C@H](NCc5ccccc5)CC4)cc3n2)cc1Cl [Example 291, N^1-benzyl-N^4-(2-(5-chloro-2,4-dimethoxyphenyl)imidazo[1,2-a]pyridin-7-yl)-trans-cyclohexane-1,4-diamine] | 0.72 µM | 0.76 µM | 0.67 µM | 0.93 µM | 0.71 µM | 0.041 µM |
| COc1cc(OC)c(-c2cn3ccc(N4CCN(Cc5ccncc5)CC4)cc3n2)cc1Cl [Example 292, 2-(5-chloro-2,4-dimethoxyphenyl)-7-(4-(pyridin-4-ylmethyl)piperazin-1-yl)imidazo[1,2-a]pyridine] | 1.2 µM | 1.3 µM | 1.3 µM | 1.2 µM | 0.68 µM | 0.00637 µM |
| COc1cc(OC)c(-c2cn3ccc(N4CCN(c5ccc(C#N)cn5)CC4)cc3n2)cc1Cl [Example 293, 6-(4-(2-(5-chloro-2,4-dimethoxyphenyl)imidazo[1,2-a]pyridin-7-yl)-piperazin-1-yl)nicotinonitrile] | 0.67 µM | 0.62 µM | 0.33 µM | 1.3 µM | 1 µM | 0.0226 µM |
| COc1cc(OC)c(-c2cn3ccc(N4CCN(c5ccnc(N6CCOCC6)n5)CC4)cc3n2)cc1Cl [Example 294, 4-(4-(4-(2-(5-chloro-2,4-dimethoxyphenyl)imidazo[1,2-a]pyridin-7-yl)-piperazin-1-yl)pyrimidin-2-yl)morpholine] | 1.1 µM | 1.3 µM | 0.78 µM | 2.3 µM | 1 µM | 0.0283 µM |
| COc1cc(OC)c(-c2cn3ccc(N4CCN(c5ccnc(N6CCCCC6)n5)CC4)cc3n2)cc1Cl [Example 295, 2-(5-chloro-2,4-dimethoxyphenyl)-7-(4-(2-(piperidin-1-yl)pyrimidin-4-yl)piperazin-1-yl)imidazo[1,2-a]pyridine] | 0.89 µM | 1.3 µM | 0.93 µM | 1.4 µM | 0.93 µM | 0.0598 µM |
| COc1cc(OC)c(-c2cn3ccc(N4CCN(c5cccnc5)CC4)cc3n2)cc1Cl [Example 296, 2-(5-chloro-2,4-dimethoxyphenyl)-7-(4-(pyridin-3-yl)piperazin-1-yl)imidazo[1,2-a]pyridine] | 0.66 µM | 0.79 µM | 0.56 µM | 0.73 µM | 0.64 µM | 0.013 µM |
| COc1cc(OC)c(-c2cn3ccc(N4CCN(c5ccnc(N(C)C)n5)CC4)cc3n2)cc1Cl [Example 297, 4-(4-(2-(5-chloro-2,4-dimethoxyphenyl)imidazo[1,2-a]pyridin-7-yl)-piperazin-1-yl)-N,N-dimethylpyrimidin-2-amine] | 0.43 µM | 0.72 µM | 0.33 µM | 0.65 µM | 0.47 µM | 0.0342 µM |
| COc1cc(OC)c(-c2cn3ccc(N4CC[C@H](NCc5ccccn5)C4)cc3n2)cc1Cl [Example 299, (S)-1-(2-(5-chloro-2,4-dimethoxyphenyl)imidazo[1,2-a]pyridin-7-yl)-N-(pyridin-2-ylmethyl)pyrrolidin-3-amine] | 5.3 µM | 5.5 µM | 4.5 µM | 6.2 µM | 3.5 µM | 0.00721 µM |
| COc1cc(OC)c(-c2cn3ccc(N4CC[C@H](NCc5cccnc5)C4)cc3n2)cc1Cl [Example 300, (S)-1-(2-(5-chloro-2,4-dimethoxyphenyl)imidazo[1,2-a]pyridin-7-yl)-N-(pyridin-3-ylmethyl)pyrrolidin-3-amine] | 6 µM | 6.1 µM | 4.7 µM | 7.1 µM | 3.5 µM | 0.0127 µM |
| COc1cc(OC)c(-c2cn3ccc(N4CC[C@H](NCc5ccccc5)C4)cc3n2)cc1Cl [Example 301, (S)—N-benzyl-1-(2-(5-chloro-2,4-dimethoxyphenyl)imidazo[1,2-a]pyridin-7-yl)pyrrolidin-3-amine] | 1.4 µM | 1.1 µM | 0.79 µM | 0.69 µM | 1.5 µM | 0.0107 µM |
| COc1cc(OC)c(-c2cn3ccc(N4CC[C@H](NCc5ccc(F)cc5)C4)cc3n2)cc1Cl [Example 302, (S)-1-(2-(5-chloro-2,4-dimethoxyphenyl)imidazo[1,2-a]pyridin-7-yl)-N-(4-fluorobenzyl)pyrrolidin-3-amine] | 1.5 µM | 1.1 µM | 0.92 µM | 0.72 µM | 1.4 µM | 0.0153 µM |
| COc1cc(OC)c(-c2cn3ccc(N4CC[C@H](NCc5ccc(C(F)(F)F)cc5)C4)cc3n2)cc1Cl [Example 303, (S)-1-(2-(5-chloro-2,4-dimethoxyphenyl)imidazo[1,2-a]pyridin-7-yl)-N-(4-(trifluoromethyl)benzyl)pyrrolidin-3-amine] | 1 µM | 0.86 µM | 0.7 µM | 0.68 µM | 0.95 µM | 0.0278 µM |
| COc1cc(OC)c(-c2cn3ccc(N4CC[C@H](NCc5ccc([N+](=O)[O-])cc5)C4)cc3n2)cc1Cl [Example 304, (S)-1-(2-(5-chloro-2,4-dimethoxyphenyl)imidazo[1,2-a]pyridin-7-yl)-N-(4-nitrobenzyl)pyrrolidin-3-amine] | 0.87 µM | 0.49 µM | 0.52 µM | 0.7 µM | 0.88 µM | 0.00888 µM |

Source: patent US10508109B2 (priority 2015, dated 2019)
